Measured values as given in patent US20100105666A1, “TRIAZABENZO (A)NAPHTHO(2,1,8-CDE) AZULENE COMPOUNDS” (priority 2007, published 2010).

Assays:
[1] = system: tyrosine hydroxylase (TH) protein in the locus coeruleus (LC); assay: Induction of tyrosine hydroxylase in the locus coeruleus after a single i.p. injection; type: in vivo; settings: three days after injection, Balb/C mouse; for amount of TH in LC section 1, % relative to the mean value of the control group: LC section 1 (anterior-to-posterior), i.p. 20 mg/kg; for amount of TH in LC section 2, % relative to the mean value of the control group: LC section 2, i.p. 20 mg/kg; for amount of TH in LC section 3, % relative to the mean value of the control group: LC section 3, i.p. 20 mg/kg; for amount of TH in LC section 4, % relative to the mean value of the control group: LC section 4, i.p. 20 mg/kg; for amount of TH in LC section 5, % relative to the mean value of the control group: LC section 5, i.p. 20 mg/kg; for amount of TH in LC section 6, % relative to the mean value of the control group: LC section 6, i.p. 20 mg/kg; for amount of TH in LC section 7, % relative to the mean value of the control group: LC section 7, i.p. 20 mg/kg; for amount of TH in LC section 8, % relative to the mean value of the control group: LC section 8, i.p. 20 mg/kg
Excerpt: An investigation is made, among the compounds, for the capability of bringing about an increase in the tyrosine hydroxylase (TH) protein in the locus coeruleus (LC) of the brain of the Balb/C mouse.
The animals used are male mice of the pure Balb/C strain (Charles River Laboratories) aged 7 to 8 weeks at the time of treatment.
The mice are given a single injection, by the intraperitoneal route, of the compound under test, dissolved in 0.04M HCl solution (corresponding control: […]), if the compound is sufficiently soluble, or in olive oil 90%/DMSO 10% (corresponding control: olive oil 90%/DMSO 10%) for compounds that are insoluble in an aqueous medium.
Three days after the injection of each compound, all the animals are sacrificed by decapitation. The extracted brains are then frozen in liquid nitrogen and stored at −80° C.
Coronal sections 8 microns thick are then taken along the posterior-anterior axis of the LC and fixed. The sections are transferred onto Immobilon-P membranes. The TH is measured by immunodetection and image analysis.

[2] = target: 5HT receptors (type 5HT2A) (Homo sapiens, UniProt P28223); assay: Affinity for receptors, displacement of labelled specific ligand: 5HT2A; type: binding
Chain of 5HT receptors (type 5HT2A) (P28223 whole entry): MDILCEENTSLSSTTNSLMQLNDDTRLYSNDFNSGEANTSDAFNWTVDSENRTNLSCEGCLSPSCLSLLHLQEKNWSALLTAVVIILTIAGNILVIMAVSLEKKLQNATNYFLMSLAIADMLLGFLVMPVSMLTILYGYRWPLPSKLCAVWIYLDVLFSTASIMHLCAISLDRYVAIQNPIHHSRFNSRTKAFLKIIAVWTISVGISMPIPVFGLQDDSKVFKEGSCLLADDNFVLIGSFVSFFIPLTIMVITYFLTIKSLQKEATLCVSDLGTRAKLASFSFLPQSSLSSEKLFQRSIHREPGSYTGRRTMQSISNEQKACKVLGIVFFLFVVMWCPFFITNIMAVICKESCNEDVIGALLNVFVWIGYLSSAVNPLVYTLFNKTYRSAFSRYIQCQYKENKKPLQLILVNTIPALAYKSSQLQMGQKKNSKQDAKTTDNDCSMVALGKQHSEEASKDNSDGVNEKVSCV
Excerpt: The receptor affinity was accordingly studied for 28 conventional receptors.

[3] = compound 10^−7M, NADPH, 0-60 minutes; for % metabolic stability predicted using hepatic microsomes, Human: human hepatic microsomes 0.33 mg of prot/ml; for % metabolic stability predicted using hepatic microsomes, Mouse: mouse hepatic microsomes 0.33 mg of prot/ml; for % metabolic stability predicted using hepatic microsomes, Rat: rat hepatic microsomes 0.33 mg of prot/ml
Experimental: The predicted metabolic stability is tested by incubation of the compounds at a concentration of 10^−7M in the presence of mouse, rat or human hepatic microsomes (0.33 mg of prot/ml). After addition of NADPH (nicotinamide adenine dinucleotide phosphate, reduced form), samples are taken at 0, 5, 15, 30 and 60 minutes. The enzymatic reaction is stopped using methanol (V/V). The protein is precipitated by centrifugation and the supernatant is analysed by LC-MS-MS.

melting point	Compound	amount of TH in LC section 1, % relative to the mean value of the control group [1]	amount of TH in LC section 2, % relative to the mean value of the control group [1]	amount of TH in LC section 3, % relative to the mean value of the control group [1]	amount of TH in LC section 4, % relative to the mean value of the control group [1]	amount of TH in LC section 5, % relative to the mean value of the control group [1]	amount of TH in LC section 6, % relative to the mean value of the control group [1]	amount of TH in LC section 7, % relative to the mean value of the control group [1]	amount of TH in LC section 8, % relative to the mean value of the control group [1]	% inhibition 5HT2A ([2]; concentration 10^−5 M)	% inhibition 5HT2A ([2]; concentration 10^−7 M)	% metabolic stability predicted using hepatic microsomes, Human [3]	% metabolic stability predicted using hepatic microsomes, Mouse [3]	% metabolic stability predicted using hepatic microsomes, Rat [3]
> 250 °C	O=C1NCN2c3ccc(Cl)cc3[C@H]3CCN4CCC[C@H]1[C@H]4[C@H]32 (racemic) [Example 1, (5aRS,12aSR,12bSR,12cSR)-7-Chloro-2,3,4,5,5a,10,11,12a,12b,12c-decahydro-1H,12H-3a,9b,11-triazabenzo[a]naphtho[2,1,8-cde]azulen-12-one]													
	O=C1NC(=O)n2c3c(c4cc(Cl)ccc42)CCN2CCCC1C32 (racemic) [Example 3, (12aRS,12bRS)-7-Chloro-2,3,12a,12b-tetrahydro-4H,4H-3a,9b,11-triazabenzo[a]naphtho[2,1,8-cde]azulene-10,12(5H,11H)-dione]	55%	58%	47%	48%	33%	19%	5%	3%					
255 °C	O=C1NC(=O)N2c3ccccc3[C@H]3CCN4CCC[C@H]1[C@H]4[C@H]32 (racemic) [Example 4, (5aRS,12aSR,12bSR,12cSR)-2,3,5a,12a,12b,12c-Hexahydro-1H,4H-3a,9b,11-triazabenzo[a]naphtho[2,1,8-cde]azulene-10,12(5H,11H)-dione]	88%	78%	70%	58%	27%	14%	9%	3%					
	O=C1NC(=O)n2c3c(c4ccccc42)CCN2CCCC1C32 (racemic) [Example 7, (12aRS,12bRS)-2,3,12a,12b-Tetrahydro-1H,4H-3a,9b,11-triazabenzo[a]naphtho[2,1,8-cde]azulene-10,12(5H,11H)-dione]	63%	67%	48%	47%	43%	23%	7%	6%	96%	34%			
	O=C1NC(=O)N2c3ccccc3C3CCN4CCCC1C4C32 (single isomer, unassigned) [Example 5, (5aS,12aR,12bR,12cR)— or (5aR,12aS,12bS,12cS)-2,3,5a,12a,12b,12c-Hexahydro-1H,4H-3a,9b,11-triazabenzo[a]naphtho[2,1,8-cde]azulene-10,12(5H,11H)-dione (enantiomer α)]											75%	100%	90%
	O=C1NC(=O)N2c3ccccc3C3CCN4CCCC1C4C32 (single isomer, unassigned) [Example 6, (5aS,12aR,12bR,12cR)— or (5aR,12aS,12bS,12cS)-2,3,5a,12a,12b,12c-Hexahydro-1H,4H-3a,9b,11-triazabenzo[a]naphtho[2,1,8-cde]azulene-10,12(5H,11H)-dione (enantiomer β)]											71%	100%	76%
	(5aRS,12aSR,12bSR,12cSR)-7-Chloro-2,3,5a,12a,12b,12c-hexahydro-1H,4H-3a,9b,1′-triazabenzo[a]naphtho[2,1,8-cde]azulene-10,12(5H,11H)-dione [Example 2]	53%	54%	46%	35%	25%	14%	5%	3%					
